Measured values published in ChEMBL document CHEMBL4265909, “Synthesis and biological evaluation of novel 5,6-dihydropyrimido[4,5-f]quinazoline derivatives as potent CDK2 inhibitors” (Bioorg Med Chem Lett, 2018).

What was measured:
[1] = system: HCT-116; test: Antiproliferative activity against human HCT116 cells after 24 hrs by MTT assay; assay type: functional, cell-based; conditions: HCT-116, 24 h
[2] = target: CDK2/Cyclin A2 (Homo sapiens, UniProt P24941); test: Inhibition of full-length human CDK2/N-terminal GST-tagged Cyclin A2 (1 to 432 residues) expressed in Baculovirus expression system using FAM-P8/P18 as substrate measured after 40 mins
[3] = system: MCF7; test: Antiproliferative activity against human MCF7 cells after 24 hrs by MTT assay; assay type: functional, cell-based; conditions: MCF7, 24 h
[4] = target: Cyclin-dependent kinase 6 (Homo sapiens, UniProt Q00534); test: Inhibition of CDK6 (unknown origin)
Cyclin-dependent kinase 6, sequence (Q00534 whole entry): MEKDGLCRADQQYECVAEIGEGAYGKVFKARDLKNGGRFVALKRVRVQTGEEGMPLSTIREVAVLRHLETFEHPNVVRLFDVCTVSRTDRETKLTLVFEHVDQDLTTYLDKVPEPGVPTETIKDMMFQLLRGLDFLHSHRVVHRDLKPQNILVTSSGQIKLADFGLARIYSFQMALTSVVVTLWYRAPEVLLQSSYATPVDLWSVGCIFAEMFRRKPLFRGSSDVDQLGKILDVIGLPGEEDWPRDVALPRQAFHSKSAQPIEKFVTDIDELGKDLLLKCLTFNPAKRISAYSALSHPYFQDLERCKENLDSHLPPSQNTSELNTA

[5] = target: Cyclin-dependent kinase 1 (Homo sapiens, UniProt P06493); test: Inhibition of CDK1 (unknown origin)
Cyclin-dependent kinase 1, sequence (P06493 whole entry): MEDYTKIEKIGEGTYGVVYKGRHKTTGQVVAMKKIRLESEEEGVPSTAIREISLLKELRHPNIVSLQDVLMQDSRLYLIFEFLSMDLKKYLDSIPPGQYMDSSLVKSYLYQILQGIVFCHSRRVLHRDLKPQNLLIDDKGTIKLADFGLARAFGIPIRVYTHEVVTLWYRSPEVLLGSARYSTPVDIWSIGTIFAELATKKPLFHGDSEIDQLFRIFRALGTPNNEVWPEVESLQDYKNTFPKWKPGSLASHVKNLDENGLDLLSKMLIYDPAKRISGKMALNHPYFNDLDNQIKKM

[6] = target: Cyclin-dependent kinase 7 (Homo sapiens, UniProt P50613); test: Inhibition of CDK7 (unknown origin)
Cyclin-dependent kinase 7, sequence (P50613 whole entry): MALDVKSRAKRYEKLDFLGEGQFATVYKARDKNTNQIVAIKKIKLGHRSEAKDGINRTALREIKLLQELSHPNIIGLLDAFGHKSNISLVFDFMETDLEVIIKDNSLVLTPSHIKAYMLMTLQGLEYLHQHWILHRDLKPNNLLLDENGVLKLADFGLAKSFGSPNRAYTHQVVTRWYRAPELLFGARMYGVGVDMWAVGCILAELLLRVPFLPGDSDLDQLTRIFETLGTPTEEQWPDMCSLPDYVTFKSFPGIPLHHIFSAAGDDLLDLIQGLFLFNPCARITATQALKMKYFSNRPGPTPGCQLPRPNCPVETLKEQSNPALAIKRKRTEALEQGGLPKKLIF

[7] = target: Cyclin-dependent kinase 4 (Homo sapiens, UniProt P11802); test: Inhibition of CDK4 (unknown origin)
Cyclin-dependent kinase 4, sequence (P11802 whole entry): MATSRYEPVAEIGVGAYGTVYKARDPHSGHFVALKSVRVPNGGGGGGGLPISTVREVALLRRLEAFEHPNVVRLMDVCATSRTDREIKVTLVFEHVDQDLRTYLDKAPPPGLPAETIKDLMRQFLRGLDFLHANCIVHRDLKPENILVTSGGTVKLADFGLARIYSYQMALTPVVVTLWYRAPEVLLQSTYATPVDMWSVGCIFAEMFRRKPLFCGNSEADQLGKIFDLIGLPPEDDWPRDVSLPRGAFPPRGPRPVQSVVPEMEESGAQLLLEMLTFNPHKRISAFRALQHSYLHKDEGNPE

[8] = target: Cyclin-dependent kinase 5 (Homo sapiens, UniProt Q00535); test: Inhibition of CDK5 (unknown origin)
Cyclin-dependent kinase 5, sequence (Q00535 whole entry): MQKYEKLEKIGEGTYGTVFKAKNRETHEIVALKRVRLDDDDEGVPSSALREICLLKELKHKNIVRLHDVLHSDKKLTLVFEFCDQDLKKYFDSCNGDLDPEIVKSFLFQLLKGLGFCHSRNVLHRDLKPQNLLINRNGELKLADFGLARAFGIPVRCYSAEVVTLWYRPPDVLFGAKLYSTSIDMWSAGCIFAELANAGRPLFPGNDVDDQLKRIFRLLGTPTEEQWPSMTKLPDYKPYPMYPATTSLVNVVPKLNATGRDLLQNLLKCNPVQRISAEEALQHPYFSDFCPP

SMILES	IC50 [1] [µM]	IC50 [2] [µM]	IC50 [3] [µM]	IC50 [4] [µM]	IC50 [5] [µM]	IC50 [6] [µM]	IC50 [7] [µM]	IC50 [8] [µM]
CSc1ncc2c(n1)CCc1cnc(Nc3ccc(C(=O)N(C)C)cc3)nc1-2	5.3	0.53	3.7					
CSc1ncc2c(n1)CCc1cnc(Nc3ccc(C(=O)NC4CCCC4)cc3)nc1-2	9.1	1.26	6.5					
CSc1ncc2c(n1)CCc1cnc(Nc3ccc(C(=O)N4CCN(C(=O)OC(C)(C)C)CC4)cc3)nc1-2	17.2	3.7	19.4					
CCOC(=O)c1ccc(Nc2ncc3c(n2)-c2cnc(SC)nc2CC3)cc1	14.3	1.25	25.4					
CSc1ncc2c(n1)CCc1cnc(Nc3ccc(F)cc3)nc1-2	7.9	0.35	8.4					
CSc1ncc2c(n1)CCc1cnc(Nc3ccc(C(=O)N4CCN(C)CC4)cc3)nc1-2	3.8	0.18	2.5					
CC(C)(C)c1cnc(CSc2cnc(NC(=O)C3CCNCC3)s2)o1 [BMS-387032]	0.7		1					
CSc1ncc2c(n1)CCc1cnc(Nc3ccc(C(=O)O)cc3)nc1-2	12.8	0.98	17.8					
CSc1ncc2c(n1)CCc1cnc(Nc3ccc(C(=O)N4CCOCC4)cc3)nc1-2	3.2	0.19	2.1					
CSc1ncc2c(n1)CCc1cnc(Nc3ccc(C(=O)N4CCNCC4)cc3)nc1-2	1.3	0.16	1.5					
CSc1ncc2c(n1)CCc1cnc(Nc3ccc(C(N)=O)cc3)nc1-2	0.9	0.11	1.3					
CSc1ncc2c(n1)CCc1cnc(Nc3ccc(C(=O)N(C)CCN(C)C)cc3)nc1-2	1.4	0.09	1.1	> 5	1.25	3.6	> 5	0.68
CSc1ncc2c(n1)CCc1cnc(Nc3ccc(Cl)cc3)nc1-2	8.3	0.38	7					
CN1CCN(C(=O)c2ccc(Nc3ncc4c(n3)CCc3cnc(N)nc3-4)cc2)CC1	> 30	5.9	> 30					

The next lines start with the values.

IC50 [1] [µM]	IC50 [2] [µM]	IC50 [3] [µM]	IC50 [4] [µM]	IC50 [5] [µM]	IC50 [6] [µM]	IC50 [7] [µM]	IC50 [8] [µM]	SMILES
> 30	1.85	> 30						Nc1ncc2c(n1)-c1cnc(Nc3ccc(Cl)cc3)nc1CC2
18.1	1.54	20.6						c1ccc(Nc2ncc3c(n2)CCc2cnc(Nc4ccccc4)nc2-3)cc1
> 30		> 30						Nc1ncc2c(n1)-c1cnc(Nc3ccc(C(=O)N4CCOCC4)cc3)nc1CC2
> 30	3.2	> 30						CN(C)CCN(C)C(=O)c1ccc(Nc2ncc3c(n2)CCc2cnc(N)nc2-3)cc1
25.3	1.7	27.6						Nc1ncc2c(n1)-c1cnc(Nc3ccccc3)nc1CC2
1.6	0.16	1.4						CSc1ncc2c(n1)CCc1cnc(Nc3ccc(N)cc3)nc1-2
26.3	2.03	23.5						Clc1ccc(Nc2ncc3c(n2)-c2cnc(Nc4ccccc4)nc2CC3)cc1
> 30		> 30						CCOC(=O)c1ccc(Nc2ncc3c(n2)CCc2cnc(N)nc2-3)cc1
12.7	0.41	15.6						CSc1ncc2c(n1)CCc1cnc(Nc3ccccc3)nc1-2
